Target: KRas (Homo sapiens, UniProt P01116, G12C)
Assay: KRas degradation in NCI-H2030 cells by Western blot, normalized to GAPDH (data of Table 14)
Type: cell-based
Design: host or cells: NCI-H2030
Settings: for Dmax: NCI-H2030
Procedure: Cell Lines, Antibodies, and Reagents. NCI-H2030 (CRL-5914) and SW1573 (CRL-2170) cells were purchased from ATCC. Both cell lines are homozygous for the G12C mutation in KRas. NCI-H2030 cells were cultured in RPMI-1640 medium containing 1% penicillin-streptomycin and 10% fetal bovine serum (FBS). SW1573 cells were cultured in DMEM containing 1% penicillin-streptomycin and 10% FBS. The KRas detection antibody (Cat. No. LS-C175665) was purchased from LifeSpan Biosciences and was used at a dilution of 1:2000. GAPDH was detected using an antibody purchased from Cell Signaling Technology (Cat. No. 5174) and was diluted 1:3000. Secondary anti-mouse and anti-rabbit detection antibodies were purchased from Cell Signaling Technology (Cat. Nos. 7076 and 7074, respectively).
Compound Treatment and Western Blotting of the Data of Table 14. Either NCI-H2030 or SW1573 cells were plated in 12-well plates and allowed to adhere overnight at 37° C. in an incubator containing 5% CO2. The following day, the medium was replaced with the appropriate medium lacking FBS to induce starvation. Cells were returned to the incubator for an additional 24 hours following media exchange. […] Cells were treated with VHL-based compounds for 24 hours and all other compounds for 72 hours. Following treatment, cells were lysed in RIPA buffer (Thermo Fisher Cat. No. 89900) containing phosphatase (Thermo Fisher Cat. No. 1861277) and protease (Thermo Fisher Cat. No. 78429) inhibitor cocktails. Lysates were cleared at 13,000 rpm for 15 minutes and supernatants were assayed for total protein concentration using the Pierce BCA assay system (Thermo Fisher Cat. No. 23225). For each sample, 10 μg total protein was resolved on a 12% Bis-Tris gel and then transferred to a nitrocellulose membrane. After blocking in 3% BSA in TBST (Tris-buffered Saline with 0.1% Tween-20) for 1 hour at room temperature, membranes were probed with the primary antibody (LS Bio Cat. No. LS-C175665) overnight at 4° C. After incubation with the secondary antibody, the following day membranes were visualized using the SuperSignal™ West Femto substrate (Thermo Fisher Cat. No. 34095). The KRas signal in each lane was normalized to GAPDH and percent degradation was either estimated as less than 25% by visual inspection (C in Table 13) or quantitated relative to the DMSO control lane using BIO-RAD Image Lab 5.2.1, and all data was plotted using GraphPad PRISM 6.07.
DC50 is the half-maximal degradation concentration—i.e., the concentration at which 50% degradation is observed. DMax is the maximum degradation efficacy is achieved—i.e., the maximal degradation observed) degradation data.

Compound | Percent Degradation at Indicated Concentration (μM) (H2030, 0.3 μM) | Percent Degradation at Indicated Concentration (μM) (H2030, 1 μM) | Percent Degradation at Indicated Concentration (μM) (H2030, 3 μM) | Dmax [%] | Percent Degradation at Indicated Concentration (μM): 0.3 (H2030 cells, 0.3 μM) | Percent Degradation at Indicated Concentration (μM): 1 (H2030 cells, 1 μM) | Percent Degradation at Indicated Concentration (μM): 3 (H2030 cells, 3 μM) | Dmax (H2030 cells) [%] | Percent Degradation at Indicated Concentration (μM) (H2030 cells, 0.3 μM) | Percent Degradation at Indicated Concentration (μM) (H2030 cells, 1 μM) | Percent Degradation at Indicated Concentration (μM) (H2030 cells, 3 μM)
Cc1ncsc1-c1ccc([C@H](C)NC(=O)[C@@H]2C[C@@H](O)CN2C(=O)[C@@H](NC(=O)COCCOCCN(C)C(=O)CCNc2nc(N3CCN(C(N)=O)CC3)c3cc(Cl)c(-c4cc(O)cc5ccccc45)c(F)c3n2)C(C)(C)C)cc1 [compound 182, 4-(6-chloro-8-fluoro-2-(((S)-14-((2S,4R)-4-hydroxy-2-(((S)-1-(4-(4-methylthiazol-5-yl)phenyl)ethyl)carbamoyl)pyrrolidine-1-carbonyl)-4,15,15-trimethyl-3,12-dioxo-7,10-dioxa-4,13-diazahexadecyl)amino)-7-(3-hydroxynaphthalen-1-yl)quinazolin-4-yl)piperazine-1-carboxamide] | C (Percent Degradation: C ≤ 35) | C (Percent Degradation: C ≤ 35) | C (Percent Degradation: C ≤ 35) | ≤ 35 |  |  |  |  |  |  | 
CN[C@@H](C)C(=O)N[C@H](C(=O)N1CCC[C@H]1c1nc(-c2ccc(OCCOCCOCCOCCOCCN(C)C(=O)CCNc3nc(N4CCN(C(C)=O)CC4)c4cc(Cl)c(-c5cc(O)cc6ccccc56)c(F)c4n3)c3ccccc23)cs1)C1CCCCC1 [compound 269, 3-((4-(4-acetylpiperazin-1-yl)-6-chloro-8-fluoro-7-(3-hydroxynaphthalen-1-yl)quinazolin-2-yl)amino)-N-(14-((4-(2-((S)-1-((S)-2-cyclohexyl-2-((S)-2-(methylamino)propan-amido)acetyl)pyrrolidin-2-yl)thiazol-4-yl)naphthalen-1-yl)oxy)-3,6,9,12-tetraoxatetradecyl)-N-methylpropanamide] | C (Percent Degradation: C ≤ 35) | C (Percent Degradation: C ≤ 35) | C (Percent Degradation: C ≤ 35) | ≤ 35 |  |  |  |  |  |  | 
CN(CCOCCOc1ccc2c(c1)C(=O)N(C1CCC(=O)NC1=O)C2=O)C(=O)CCNc1nc(N2CCN(C(N)=O)CC2)c2cc(Cl)c(-c3cc(O)cc4ccccc34)c(F)c2n1 (stereo not drawn) [compound 27, 4-(6-chloro-2-((3-((2-(2-((2-(2,6-dioxopiperidin-3-yl)-1,3-dioxoisoindolin-5-yl)oxy)ethoxy)ethyl)(methyl)amino)-3-oxopropyl)amino)-8-fluoro-7-(3-hydroxynaphthalen-1-yl)quinazolin-4-yl)piperazine-1-carboxamide] | C (Percent Degradation: C ≤ 35) | C (Percent Degradation: C ≤ 35) | C (Percent Degradation: C ≤ 35) | ≤ 35 |  |  |  |  |  |  | 
C=CC(=O)N1CCN(c2nc(NCCC(=O)N(C)CCOCCOCCN3CCN(CC(=O)N[C@H](C(=O)N4C[C@H](O)C[C@H]4C(=O)N[C@@H](C)c4ccc(-c5scnc5C)cc4)C(C)(C)C)CC3)nc3c(F)c(-c4cc(O)cc5ccccc45)c(Cl)cc23)CC1 [compound 249, (2S,4R)-1-((2S)-2-(2-(4-(2-(2-(2-(3-((4-(4-acryloylpiperazin-1-yl)-6-chloro-8-fluoro-7-(3-hydroxynaphthalen-1-yl)quinazolin-2-yl)amino)-N-methylpropanamido)ethoxy)eth-oxy)ethyl)piperazin-1-yl)acetamido)-3,3-dimethylbutanoyl)-4-hydroxy-N-((S)-1-(4-(4-methylthiazol-5-yl)phenyl)ethyl)pyrrolidine-2-carboxamide] | C (Percent Degradation: C ≤ 35) | C (Percent Degradation: C ≤ 35) | C (Percent Degradation: C ≤ 35) | ≤ 35 |  |  |  |  |  |  | 
CCC(=O)N1CCN(c2nc(NCCC(=O)N(C)CCOCCOc3ccc4c(c3)C(=O)N(C3CCC(=O)NC3=O)C4=O)nc3c(F)c(-c4cc(O)cc5ccccc45)c(Cl)cc23)CC1 (stereo not drawn) [compound 47, 3-((6-chloro-8-fluoro-7-(3-hydroxynaphthalen-1-yl)-4-(4-propionylpiperazin-1-yl)quinazolin-2-yl)amino)-N-(2-(2-((2-(2,6-dioxopiperidin-3-yl)-1,3-dioxoisoindolin-5-yl)oxy)ethoxy)ethyl)-N-methylpropanamide] |  |  |  |  | C (C ≤ 35) | C (C ≤ 35) | C (C ≤ 35) | ≤ 35 |  |  | 
CCC(=O)N1CCN(c2nc(NCCC(=O)N(C)CCOCCOCCOCCOCC(=O)N[C@H](C(=O)N3C[C@H](O)C[C@H]3C(=O)N[C@@H](C)c3ccc(-c4scnc4C)cc3)C(C)(C)C)nc3c(F)c(-c4cc(O)cc5ccccc45)c(Cl)cc23)CC1 [compound 189, (2S,4R)-1-((2S)-2-(tert-butyl)-21-((6-chloro-8-fluoro-7-(3-hydroxynaphthalen-1-yl)-4-(4-propionylpiperazin-1-yl)quinazolin-2-yl)amino)-18-methyl-4,19-dioxo-6,9,12,15-tetraoxa-3,18-diazahenicosanoyl)-4-hydroxy-N-((S)-1-(4-(4-methylthiazol-5-yl)phenyl)ethyl)pyrrolidine-2-carboxamide] |  |  |  |  | C (C ≤ 35) | C (C ≤ 35) | C (C ≤ 35) | ≤ 35 |  |  | 
CN(CCOCCOc1ccc2c(c1)C(=O)N(C1CCC(=O)NC1=O)C2=O)C(=O)CCNc1nc(N2CCN(C(=O)C(O)O)CC2)c2cc(Cl)c(-c3c(O)cccc3F)c(F)c2n1 [compound 150, 3-(((R)-6-chloro-4-(4-(2,2-dihydroxyacetyl)piperazin-1-yl)-8-fluoro-7-(2-fluoro-6-hydroxyphenyl)quinazolin-2-yl)amino)-N-(2-(2-((2-(2,6-dioxopiperidin-3-yl)-1,3-dioxoisoindolin-5-yl)oxy)ethoxy)ethyl)-N-methylpropanamide] |  |  |  |  |  |  |  |  | C (Percent Degradation: C ≤ 35) | C (Percent Degradation: C ≤ 35) | C (Percent Degradation: C ≤ 35)
CCC(=O)N1CCN(c2nc(NCCC(=O)N(C)CCOCCOCCOc3cc(-c4scnc4C)ccc3CNC(=O)[C@@H]3C[C@@H](O)CN3C(=O)[C@H](c3cc(C)no3)C(C)C)nc3c(F)c(-c4cc(O)cc5ccccc45)c(Cl)cc23)CC1 [compound 333, (2S,4R)-N-(2-(2-(2-(2-(3-((6-chloro-8-fluoro-7-(3-hydroxynaphthalen-1-yl)-4-(4-propionylpiperazin-1-yl)quinazolin-2-yl)amino)-N-methylpropanamido)ethoxy)ethoxy)ethoxy)-4-(4-methylthiazol-5-yl)benzyl)-4-hydroxy-1-((S)-3-methyl-2-(3-methylisoxazol-5-yl)butanoyl)pyrrolidine-2-carboxamide] |  |  |  |  | C (C ≤ 35) | C (C ≤ 35) | C (C ≤ 35) | ≤ 35 |  |  | 
C=CC(=O)N1CCN(c2nc(NCCC(=O)N(C)CCOCCOc3cc(-c4scnc4C)ccc3CNC(=O)[C@@H]3C[C@@H](O)CN3C(=O)[C@@H](c3cc(C)no3)C(C)C)nc3c(F)c(-c4c(O)cccc4F)c(Cl)cc23)CC1 (atropisomer, axis not shown) [compound 128, (25,4R)-N-(2-(2-(2-(3-(((S)-4-(4-acryloylpiperazin-1-yl)-6-chloro-8-fluoro-7-(2-fluoro-6-hydroxyphenyl)quinazolin-2-yl)amino)-N-methylpropanamido)ethoxy)ethoxy)-4-(4-methylthiazol-5-yl)benzyl)-4-hydroxy-1-((R)-3-methyl-2-(3-methylisoxazol-5-yl)butanoyl)pyrrolidine-2-carboxamide] | C (Percent Degradation: C ≤ 35) | C (Percent Degradation: C ≤ 35) | C (Percent Degradation: C ≤ 35) | ≤ 35 |  |  |  |  |  |  | 
C=CC(=O)N1CCN(c2nc(NCCC(=O)N(C)CCOCCOc3cc(-c4scnc4C)ccc3CNC(=O)[C@@H]3C[C@@H](O)CN3C(=O)[C@@H](c3cc(C)no3)C(C)C)nc3c(F)c(-c4cc(O)cc5ccccc45)c(Cl)cc23)CC1 [compound 339] |  |  |  |  | C (C ≤ 35) | C (C ≤ 35) | C (C ≤ 35) | ≤ 35 |  |  | 

Source: US12552783B2, “Modulators of proteolysis and associated methods of use” (Arvinas Operations, Inc., priority 2018, dated 2026)
